Assays:
[1] = test system: Miyakogusa (Lotus japonicus); assay: Root nodule formation (number of infection threads, number of root nodules) in Miyakogusa inoculated with DsRED gene-bearing rhizobium; format: in vivo; settings: final concentration 10 μM or 100 μM, vs Non-addition (control)
Description: First, caffeic acid (Caffeic Acid, CAS RN: 331-39-5 C0002, Tokyo Chemical Industry Co., Ltd.) was dissolved in ethanol, thereby preparing a 100 mM stock solution. Next, about 300 mL of vermiculite was added to pots, entirely moistened with water, and then sterilized in an autoclave. Miyakogusa (Lotus japonicus) three to four days after sowing was transplanted into the pots, and 50 mL of B&D liquid medium (Broughton and Dilworth, 1971) containing a DsRED gene-bearing rhizobium (OD600=[…]; 1 mL) and caffeic acid (final concentration: 10 μM or 100 μM) was added.
Plants inoculated with the rhizobium were grown in an incubator (26° C.; 16 hr light/8 hr dark). The plants were dug up from the soil after one week and two weeks, and the number of infection threads and the number of root nodules were counted under a fluorescent stereomicroscope.
In FIG. 1, error bars in the graphs represent standard errors, and asterisks (*) indicate data with a significant difference (Dunnett method: p<0.05; n=10) compared to Non-addition (control).

[2] = test system: soybean (Glycine max cv. Enrei); assay: Biomass production and root nodule formation in soybean inoculated with rhizobia (Bradyrhizobium japonicum); format: in vivo; settings: 100 μM, vs Non-addition (control), Dunnett p<0.01, n=8
Description: In this Example, first, seeds of the soybean (Glycine max cv. Enrei) were placed on wet Kimwipes® for three to four days to germinate and then transferred to pots containing vermiculite (about 1.1 L) and grown for about three days in a plant incubator (28° C.; 16 hr light/8 hr dark). Next, a non-addition plot was prepared by adding rhizobia (Bradyrhizobium japonicum; OD600=0.1; 1 mL) to 50 ml of B&D medium. An addition plot was prepared by adding ferulic acid (final concentration: 100 μM) to 50 mL of B&D medium containing rhizobia. They were inoculated into the individual soybean plants. Soybean plants grown in the incubator for one week and two weeks were dug up from the pots, and their growth (aerial part length, underground part length, number of leaves) and number of root nodules were measured.
In FIGS. 4 and 5, error bars in the graphs represent standard errors, and asterisks (**) indicate data with a significant difference (Dunnett method: p<0.01; n=8) compared to Non-addition (control).

[3] = after two weeks, Dunnett p<0.05, n=10

SMILES: O=C(O)/C=C/c1ccc(O)c(O)c1 [caffeic acid]
- number of infection threads ([1]; after one week, Dunnett p<0.05, n=10): significant increase
- number of root nodules [1, 3]: tendency for the number of root nodules to increase

SMILES: COc1cc(/C=C/C(=O)O)ccc1O [ferulic acid, 3-methoxy-4-hydroxycinnamic acid]
- number of infection threads ([1]; after two weeks): significant increases
- number of root nodules [1, 3]: significant increases
- number of root nodules ([2]; soybean grown for one week): significantly increased
- aerial part length ([2]; soybean grown for two weeks): significantly increased
- number of root nodules ([2]; soybean grown for two weeks): significantly increased

SMILES: COc1cc(/C=C/C(=O)O)cc(OC)c1O [sinapinic acid, 3,5-Dimethoxy-4-hydroxycinnamic Acid]
- number of root nodules ([1]; after one week): significant increase
- number of infection threads ([1]; after two weeks): significant increase

Source: US20230404075A1, “RHIZOBIA SYMBIOSIS PROMOTING AGENT AND SYMBIOSIS PROMOTION METHOD” (TOYOTA JIDOSHA KABUSHIKI KAISHA, priority 2020, published 2023)
